In patent publication US10093611B2, “Benzocycloalkenes as antifungal agents” (Bayer Intellectual Property GmbH, priority 2010, dated 2018):

Columns and labels:
[1] = log P by HPLC on reversed-phase column (C 18), EEC Directive 79/831 Annex V.A8; assay type: physicochemical; conditions: C 18 reversed phase, 40° C., 0.1% aqueous formic acid and acetonitrile gradient
Protocol: In table 1, the log P values were determined in accordance with EEC Directive 79/831 Annex V.A8 by HPLC (High Performance Liquid Chromatography) on a reversed-phase column (C 18), using the method described below: Temperature: 40° C.; Mobile phases: 0.1% aqueous formic acid and acetonitrile; linear gradient from 10% acetonitrile to 90% acetonitrile. Calibration was carried out using unbranched alkan-2-ones (comprising 3 to 16 carbon atoms) with known log P values (determination of the log P values by the retention times using linear interpolation between two successive alkanones). lambda-max-values were determined using UV-spectra from 200 nm to 400 nm and the peak values of the chromatographic signals.

Alternaria solani = assay: In vivo preventive test on Alternaria solani (tomato); conditions: 500 ppm of active ingredient, evaluated 7 days after inoculation
Protocol: EXAMPLE A: IN VIVO PREVENTIVE TEST ON ALTERNARIA SOLANI (TOMATO) Solvent: 49 parts by weight of N,N-dimethylformamide Emulsifier: 1 part by weight of Alkylarylpolyglycolether To produce a suitable preparation of active compound, 1 part by weight of active compound is mixed with the stated amounts of solvent and emulsifier, and the concentrate is diluted with water to the desired concentration. To test for preventive activity, young plants are sprayed with the preparation of active compound at the stated rate of application. One day after this treatment, the plants are inoculated with an aqueous spore suspension of Alternaria solani. The plants remain for one day in an incubation cabinet at approximately 22° C. and a relative atmospheric humidity of 100%. Then the plants are placed in an incubation cabinet at approximately 20° C. and a relative atmospheric humidity of 96%. The test is evaluated 7 days after the inoculation. 0% means an efficacy which corresponds to that of the control while an efficacy of 100% means that no disease is observed. Under these conditions, good (at least 80%) to total protection is observed at a dose of 500 ppm of active ingredient with the following compounds from table A: […]

[2] = test system: Fusarium nivale (var. majus); assay: In vivo curative test on Fusarium nivale (var. majus) (wheat); conditions: 500 ppm of active ingredient, evaluated 5 days after inoculation
Protocol: EXAMPLE C: IN VIVO CURATIVE TEST ON FUSARIUM NIVALE (VAR. MAJUS) (WHEAT) Solvent: 49 parts by weight of N,N-dimethylacetamide Emulsifier: 1 part by weight of alkylaryl polyglycol ether To produce a suitable preparation of active compound, 1 part by weight of active compound or active compound combination is mixed with the stated amounts of solvent and emulsifier, and the concentrate is diluted with water to the desired concentration. To test for curative activity, young plants are slightly injured by using a sandblast and afterwards they are sprayed with a conidia suspension of Fusarium nivale (var. majus) and placed for 24 hours in a greenhouse under a translucent incubation cabinet at a temperature of approximately 10° C. and a relative atmospheric humidity of approximately 100% and are subsequently sprayed with the preparation of active compound at the stated rate of application. After the spray coating has been dried, the plants remain in the greenhouse under translucent incubation cloches at a temperature of approximately 10° C. and a relative atmospheric humidity of approximately 100%. The test is evaluated 5 days after the inoculation. 0% means an efficacy which corresponds to that of the untreated control, while an efficacy of 100% means that no disease is observed. Under these conditions, total protection is observed at a dose of 500 ppm of active ingredient with the following compounds from table C: […]

Puccinia triticina = assay: In vivo preventive test on Puccinia triticina (wheat); conditions: 500 ppm of active ingredient, evaluated 8 days after inoculation
Protocol: EXAMPLE E: IN VIVO PREVENTIVE TEST ON PUCCINIA TRITICINA (WHEAT)
Solvent: 49 parts by weight of N,N-dimethylacetamide
Emulsifier: 1 part by weight of alkylaryl polyglycol ether
To produce a suitable preparation of active compound, 1 part by weight of active compound or active compound combination is mixed with the stated amounts of solvent and emulsifier, and the concentrate is diluted with water to the desired concentration.
To test for preventive activity, young plants are sprayed with the preparation of active compound or active compound combination at the stated rate of application.
After the spray coating has been dried, the plants are sprayed with a spore suspension of Puccinia triticina. The plants remain for 48 hours in an incubation cabinet at approximately 20° C. and a relative atmospheric humidity of approximately 100%.
The plants are placed in the greenhouse at a temperature of approximately 20° C. and a relative atmospheric humidity of approximately 80%.
The test is evaluated 8 days after the inoculation. 0% means an efficacy which corresponds to that of the untreated control, while an efficacy of 100% means that no disease is observed.
Under these conditions, high (at least 85%) to total protection is observed at a dose of 500 ppm of active ingredient with the following compounds from table E: […]

Septoria tritici = assay: In vivo preventive test on Septoria tritici (wheat); conditions: 500 ppm of active ingredient, evaluated 21 days after inoculation
Protocol: EXAMPLE G: IN VIVO PREVENTIVE TEST ON SEPTORIA TRITICI (WHEAT) Solvent: 49 parts by weight of N,N-dimethylacetamide Emulsifier: 1 part by weight of alkylaryl polyglycol ether To produce a suitable preparation of active compound, 1 part by weight of active compound or active compound combination is mixed with the stated amounts of solvent and emulsifier, and the concentrate is diluted with water to the desired concentration. To test for preventive activity, young plants are sprayed with the preparation of active compound or active compound combination at the stated rate of application. After the spray coating has dried on, the plants are sprayed with a spore suspension of Septoria tritici. The plants remain for 48 hours in an incubation cabinet at approximately 20° C. and a relative atmospheric humidity of approximately 100% and then 60 hours at approximately 15° C. in a translucent incubation cabinet at a relative atmospheric humidity of approximately 100%. The plants are placed in a greenhouse at a temperature of approximately 15° C. and a relative atmospheric humidity of approximately 80%. The test is evaluated 21 days after the inoculation. 0% means an efficacy which corresponds to that of the control, while an efficacy of 100% means that no disease is observed. Under these conditions, total protection is observed at a dose of 500 ppm of active ingredient with the following compounds from table G: […]

logP [1] | chromatographic logP ([1]; reversed-phase HPLC column (C 18)) | Compound | Efficacy (Alternaria solani) | Efficacy [2] | Efficacy (Puccinia triticina) | Efficacy (Septoria tritici)
3.25 |  | Cc1nn(C)c(F)c1C(=O)N(C1CC1)C(C)C1Cc2ccccc2C1 (stereo not drawn) [Example 11] | 100% | 100% | 100% | 100%
3.67 |  | CCc1nn(C)c(F)c1C(=O)N(C1CC1)C(C)C1Cc2ccccc2C1 (stereo not drawn) [Example 12] | 100% | 100% | 100% | 100%
3.33 |  | CC(C1Cc2ccccc2C1)N(C(=O)c1cn(C)nc1C(F)F)C1CC1 (stereo not drawn) [Example 13] | 100% | 100% | 100% | 100%
 | 3.76 | CC(C1Cc2ccccc2C1)N(C(=O)c1c(C(F)F)nn(C)c1F)C1CC1 (stereo not drawn) [Example 14, N-cyclopropyl-3-(difluoromethyl)-N-[1-(indan-2-yl)ethyl]-5-fluoro-1-methyl-1H-pyrazole-4-carboxamide] | 95% | 100% | 100% | 100%
3.99 |  | CC(C1CCc2ccccc2C1)N(C(=O)c1c(C(F)F)nn(C)c1F)C1CC1 (stereo not drawn) [Example 16] | 95% | 100% | 100% | 100%
4.41 |  | CCC(C1CCc2ccccc2C1)N(C(=O)c1c(C(F)F)nn(C)c1F)C1CC1 (stereo not drawn) [Example 17] | 80% | 100% | 88% | 100%
